Laboratory results from patent US20110177161A1, “PHARMACEUTICAL COMPOSITIONS OF [5(S)-(2'-HYDROXYETHOXY)-20(S)-CAMPTOTHECIN” (DR. REDDY'S LABORATORIES LIMITED, priority 2007, published 2011).

What was measured:
[1] = in vivo; parameters: species or system male Wistar rats; conditions: male, Wistar, rat, po, 2.5 mg/kg
Protocol: 5(S)-CPT (2.5 mg/kg) and 5(RS)-CPT (5 mg/kg, including 2.5 mg/kg of 5(S)-CPT in the mixture) were been administered to male Wistar Rats to evaluate oral pharmacokinetics.
(§1) Male Wistar rats, 6-8 weeks of age and weighing between 205 and 218 g were divided into groups of four rats. The oral pharmacokinetics test was carried out in overnight fasted condition and intravenous pharmacokinetics was carried out in fed condition. The test drugs were administered as a solution by oral gavage or lateral tail vein injection. Sparse blood samples of about 250 microliters were collected from retro-orbital plexus at designated time points into microcentrifuge tubes containing 25 microliters of EDTA. Plasma was separated by centrifuging blood at 12,800 rpm for 2 min and refrigerated until analysis.
(§2) Samples were tested for the presence of the test drug as follows. An aliquot of 100 μL plasma (stored at 8° C.) was precipitated with 400 μL of cold methanol for the estimation of total (lactone+carboxylate). […] Concentrations of the test drug were calculated from the linearity plotted by spiking known concentrations of the test drug in blank rat plasma. The pharmacokinetics of the test drug was calculated using non-compartmental analysis.

[2] = Physicochemical characteristics of drug substance, powder composition, blend and lyophilized product
From the text: Another indication of the physicochemical characteristics of the powder composition is the density properties such as bulk and tapped density. Bulk density is described as untapped or tapped. Untapped bulk density of a substance is the undisturbed packing density of that substance and tapped bulk density relates to the packing density after tapping a bed of substance until no change in the packing density is seen. Bulk density and tapped density can be determined using compendial bulk density apparatus, the method being given in United States Pharmacopeia 29, United States Pharmacopeial Convention, Inc., Rockville, Md., 2005, at pages 2638-2639. A higher bulk density indicates a dense material allowing a higher dose to be filled into a given size capsule for example. The powder compositions can have bulk densities from about 0.8 g/ml to about 0.2 g/ml, or from about 0.6 g/ml to about 0.2 g/ml.
The Hausner ratio is a measure of inter-particle friction and the potential powder arch or bridge strength and stability (Hausner, H. H. Friction conditions in a mass of metal powders. International Journal of Powder Metallurgy 1967, 3 (4), pages 7-13). It has been widely used to estimate the flow properties of powders, blends, granules and other such particles or aggregates and is expressed as the ratio of tapped bulk density to the untapped bulk density of the substance. Hausner ratio used herein is defined as ratio of tapped to untapped bulk densities. A Hausner ratio of <1.2 indicates good flow while ratio >1.5 indicate poor flow. The powder compositions can have a Hausner ratio less than 1.5 or less than 1.2.
Carr index as used herein is defined as the percent compressibility which is a percentage ratio of the difference between tapped bulk density and initial bulk density to tapped bulk density. Carr index values between 5-15% represent materials with excellent flowability, values between 18-21% represent fair-flowability and values above 40% represent very poor flowability. The powder compositions of the invention can have Carr index values less than 40% or less than 21% or less than 15%.
Table 1 describes the physicochemical characteristics of DRF-(5S,20S)-1042, which is used in the examples below.
The powder composition and formulation blend along with their placebo have been characterized for their physical parameters and the data has been tabulated in table 11.
After completion of lyophilization cycle the vials were sealed using 20 mm aluminum flip-off seals. The resulting lyophilized product was tested for various parameters as per Table 19.

[3] = system: 34 human cancer cell lines; assay: In vitro cell growth assay, Sulphorhodamine B (SRB); assay type: cell-based; conditions: 48 h exposure
Protocol: Cell proliferation was evaluated by Sulphorhodamine B (SRB) assay where the amount of dye bound to the cells after staining gives a measure of cell growth. Refer to: JNCI, vol 83, No. 11, Jun. 5, 1991, which is incorporated herein by reference.
Briefly, cells (34 human cancer cell lines represented by bladder, breast, CNS, colon, epidermoid, lung, ovarian, melanoma, prostate, renal and uterine cancers) were seeded on a 96-well cell culture plates at a concentration of 10,000 cells per well and incubated at 37 degree C. in a CO2 incubator. Twenty-four hours later, cells were treated with different concentrations of […] dissolved in DMSO to a final concentration of 0.05% in the culture medium and exposed for 48 h. Cells were fixed by adding ice-cold 50% trichloroacetic acid (TCA) and incubating for 1 h at 4° C. The plates were washed with distilled water, air dried and stained with SRB solution (0.4% wt/vol in 1% Acetic acid) for 10 min at room temperature. Unbound SRB was removed by washing thoroughly with 1% acetic acid and the plates were air-dried. The bound SRB stain was solubilized with 10 mM Tris buffer, and the optical densities were read on a spectrophotometric plate reader at a single wavelength of 515 nm. […] From the optical densities the percentage growths were calculated using the following formulae: […]

[4] = in vivo; parameters: species or system Swiss Albino mice; conditions: Swiss Albino, mouse, po, 2.5 mg/kg
Protocol: 5(S)-CPT (2.5 mg/kg) and 5(RS)-CPT (5 mg/kg, including 2.5 mg/kg of 5(S)-CPT in the mixture) were been administered to Swiss Albino mice to evaluate oral pharmacokinetics.
as §1, with “Swiss Albino mice, 3-6” for “Male Wistar rats, 6-8”, “28-34” for “205 and 218”, “used in the study. Twelve mice were used per study.” for “divided into groups of four rats.”
as §2, with “100µl” for “100 μL”, “400µl” for “400 μL”

## CC[C@@]1(O)C(=O)OCc2c1cc1n(c2=O)[C@@H](OCCO)c2cc3ccccc3nc2-1 [DRF-(5S,20S)-1042, 5(S)-(2′-hydroxyethoxy)-20(S)-camptothecin]
[1]
  AUC: 1.21 µM·h
[2]; drug substance
  Bulk density: 0.17 g/mL
  Carr Index: 46.5%
  Hausner ratio: 1.9
  Moisture content: 0.2 % w/w
  Tapped density: 0.31 g/mL
[2]; lot used for the examples
  Particle size D10: D10 = 3.6 μm
  Particle size D50: D50 = 10.9 μm
  Particle size D90: D90 = 34.0 μm
[3]
  GI50: 5 µM
[4]
  AUC: 1.1 µM·h
